Consider one molecule from patent US8541649B2, “Brassinosteroid regulated kinases (BRKs) that mediate brassinosteroid signal transduction and uses thereof” (priority 2008, dated 2013).

The target of test [1] is T1, BRI1-GFP and BRK1-myc (Arabidopsis thaliana, UniProt O22476).
T1 construct: expressed in transfected cells; host or cells: transgenic Arabidopsis plants (rosette leaves, microsomal fraction)
T1 sequence (O22476 24-1196): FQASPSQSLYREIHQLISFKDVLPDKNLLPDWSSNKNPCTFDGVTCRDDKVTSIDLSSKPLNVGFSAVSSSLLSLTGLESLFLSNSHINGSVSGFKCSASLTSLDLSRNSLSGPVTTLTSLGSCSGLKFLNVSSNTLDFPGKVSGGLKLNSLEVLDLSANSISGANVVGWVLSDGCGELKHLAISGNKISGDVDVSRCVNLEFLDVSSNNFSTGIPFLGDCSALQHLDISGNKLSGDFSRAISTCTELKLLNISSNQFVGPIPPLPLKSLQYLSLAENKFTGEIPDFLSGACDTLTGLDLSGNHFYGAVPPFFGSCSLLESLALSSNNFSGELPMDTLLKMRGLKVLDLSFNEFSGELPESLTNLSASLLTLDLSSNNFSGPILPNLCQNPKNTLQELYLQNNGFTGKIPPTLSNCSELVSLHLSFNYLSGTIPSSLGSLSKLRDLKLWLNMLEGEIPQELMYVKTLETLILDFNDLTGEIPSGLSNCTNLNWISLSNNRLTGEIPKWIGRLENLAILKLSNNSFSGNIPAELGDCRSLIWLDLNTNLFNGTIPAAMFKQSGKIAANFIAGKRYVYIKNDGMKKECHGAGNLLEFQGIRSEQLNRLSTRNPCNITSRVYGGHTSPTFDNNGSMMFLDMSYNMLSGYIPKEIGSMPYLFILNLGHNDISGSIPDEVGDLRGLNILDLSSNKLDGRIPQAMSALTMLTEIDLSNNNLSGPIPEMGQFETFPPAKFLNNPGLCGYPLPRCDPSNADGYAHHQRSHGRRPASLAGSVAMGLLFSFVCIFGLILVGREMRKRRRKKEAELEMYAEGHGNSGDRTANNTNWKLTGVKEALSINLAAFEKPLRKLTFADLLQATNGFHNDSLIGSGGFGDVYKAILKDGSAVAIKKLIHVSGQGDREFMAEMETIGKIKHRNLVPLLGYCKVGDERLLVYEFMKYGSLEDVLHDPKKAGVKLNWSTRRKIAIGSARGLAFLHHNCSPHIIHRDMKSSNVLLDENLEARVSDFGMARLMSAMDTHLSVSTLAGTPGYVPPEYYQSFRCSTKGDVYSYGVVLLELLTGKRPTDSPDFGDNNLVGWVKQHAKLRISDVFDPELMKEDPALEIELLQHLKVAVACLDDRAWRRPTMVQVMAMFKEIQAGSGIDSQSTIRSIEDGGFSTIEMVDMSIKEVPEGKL
T1 sequence (Q94F62 26-615 partner): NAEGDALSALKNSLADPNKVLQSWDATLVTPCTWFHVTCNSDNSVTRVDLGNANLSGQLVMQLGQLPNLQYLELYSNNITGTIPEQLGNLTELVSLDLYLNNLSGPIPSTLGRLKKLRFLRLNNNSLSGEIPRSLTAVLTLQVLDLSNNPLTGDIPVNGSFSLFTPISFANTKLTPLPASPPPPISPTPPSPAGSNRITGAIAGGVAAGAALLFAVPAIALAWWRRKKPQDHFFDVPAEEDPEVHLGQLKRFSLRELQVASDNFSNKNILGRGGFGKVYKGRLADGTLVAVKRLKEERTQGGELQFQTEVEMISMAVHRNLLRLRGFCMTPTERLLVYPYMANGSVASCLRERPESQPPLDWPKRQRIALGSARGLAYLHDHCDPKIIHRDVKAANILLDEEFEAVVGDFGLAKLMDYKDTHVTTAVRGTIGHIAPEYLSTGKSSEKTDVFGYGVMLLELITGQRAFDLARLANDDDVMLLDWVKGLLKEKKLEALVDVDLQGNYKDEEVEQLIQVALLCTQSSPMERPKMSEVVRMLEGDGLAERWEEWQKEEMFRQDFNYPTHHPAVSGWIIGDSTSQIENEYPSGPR
Put plainly: Co-immunoprecipitation of BRI1 with BRK1. As to conditions: 100 nM brassinolide for 30 min; microsomal proteins immunoprecipitated with anti-GFP antibodies; plants co-expressing BRK1-myc and BRI1-GFP (FIG. 2D). In kind it is in vivo. The procedure: FIGS. 2A-2D show BRK1 is a substrate of BRI1. FIGS. 2A and 2B show BRI1 phosphorylates serine230 of BRK1 in vitro. […] YFP fluorescence images of N. benthamiana leaf epidermal cells co-transformed with the indicated constructs. […] Arabidopsis plants expressing BRK1-myc only (lanes 1 and 4) or co-expressing BRK1-myc and BRI1-GFP (lanes 2, 3, 5, 6) were treated with 100 nM brassinolide (BL+) or mock solution (BL−) for 30 min. Microsomal proteins (lanes 1 to 3) were immunprecipitated with anti-GFP antibodies (lanes 4 to 6), and the immunoblot was probed using anti-GFP antibodies or anti-myc antibodies.
All procedures were performed at 4° C. Rosette leaves of 3-week-old Arabidopsis plants were homogenized with mortar and pestle in the grinding buffer (20 mM HEPES, pH 7.5, 40 mM KCl, 250 mM sucrose, 5 mM MgCl2 and protein inhibitors) at a ratio of 3 mL buffer per gram of tissue. Homogenate was filtered through 2 layers of Miracloth (CalBiochem, La Jolla, Calif.), and centrifuged at 10,000 g for 10 minutes. The supernatant was further centrifuged at 100,000 g for 60 min to pellet the microsomal fraction. Microsomes were re-suspended in 0.5 mL grinding buffer and sonicated for 10 sec. Triton X-100 was added to a final concentration of 1%. After mixing, the extracts were centrifuged at 20,000 g for 10 min. […] Samples were analyzed by SDS-PAGE and immunoblotting.

Test [2] relates to wild type plants. Briefly: Hypocotyl and root growth assay. The settings on record: wild type plants grown in the light. In kind it is in vivo, Arabidopsis thaliana. As to the method:
The det2-1 and bzr1-1D mutants are in Arabidopsis thaliana Columbia ecotype background, and bri1-5 is in the WS ecotype. For hypocotyl and root growth assay, seedlings were grown on vertical phytoagar plate containing ^1/2 MS medium and 1% sucrose (pH 5.7) in the dark for 4 days or under continuous light for 7 days. Confocal microscopy and BiFC analysis were performed according to Gampala et al. (Gampala et al., Dev Cell 13, 177 (August, 2007)).
Arabidopsis seeds were surface sterilized by first soaking in 70% ethanol plus 0.1% Triton X-100 for 15 min followed by soaking in 96% ethanol for another 10 mins. Sterilized seeds were air dried in the hood and sowed on agar plate of Murashige and Skoog (MS) medium or MS plate plus BRZ or Brassinolide. The seeds were incubated at 4° C. for 3 days to synchronize germination and then grown for 4 days in dark or 7 days under continuous light before taking pictures for measurement. For measurement of hypocotyls or root growth, the plates were first scanned using a image scanner at a resolution of 300 dpi, and the images were input into computer software Image J to measure the root or hypocotyl length.

As to `CC(C)[C@H](C)[C@@H](O)[C@H](O)[C@@H](C)[C@H]1CC[C@H]2[C@@H]3COC(=O)[C@H]4C[C@H](O)[C@H](O)C[C@]4(C)[C@H]3CC[C@]12C` [Brassinolide], the “amount of the co-immunoprecipitated BRK1-myc” value in test [1] was 46 % of the untreated sample. Moreover, in test [2], the hypocotyl elongation result was “increases hypocotyl elongation” and the root growth entry was “inhibits root growth”.
